One assay deals with T1, FLT3-D835Y (Homo sapiens, UniProt P36888, D835Y).
T1 construct: purchased Invitrogen PV3967
T1 sequence (P36888 27-993 D835Y): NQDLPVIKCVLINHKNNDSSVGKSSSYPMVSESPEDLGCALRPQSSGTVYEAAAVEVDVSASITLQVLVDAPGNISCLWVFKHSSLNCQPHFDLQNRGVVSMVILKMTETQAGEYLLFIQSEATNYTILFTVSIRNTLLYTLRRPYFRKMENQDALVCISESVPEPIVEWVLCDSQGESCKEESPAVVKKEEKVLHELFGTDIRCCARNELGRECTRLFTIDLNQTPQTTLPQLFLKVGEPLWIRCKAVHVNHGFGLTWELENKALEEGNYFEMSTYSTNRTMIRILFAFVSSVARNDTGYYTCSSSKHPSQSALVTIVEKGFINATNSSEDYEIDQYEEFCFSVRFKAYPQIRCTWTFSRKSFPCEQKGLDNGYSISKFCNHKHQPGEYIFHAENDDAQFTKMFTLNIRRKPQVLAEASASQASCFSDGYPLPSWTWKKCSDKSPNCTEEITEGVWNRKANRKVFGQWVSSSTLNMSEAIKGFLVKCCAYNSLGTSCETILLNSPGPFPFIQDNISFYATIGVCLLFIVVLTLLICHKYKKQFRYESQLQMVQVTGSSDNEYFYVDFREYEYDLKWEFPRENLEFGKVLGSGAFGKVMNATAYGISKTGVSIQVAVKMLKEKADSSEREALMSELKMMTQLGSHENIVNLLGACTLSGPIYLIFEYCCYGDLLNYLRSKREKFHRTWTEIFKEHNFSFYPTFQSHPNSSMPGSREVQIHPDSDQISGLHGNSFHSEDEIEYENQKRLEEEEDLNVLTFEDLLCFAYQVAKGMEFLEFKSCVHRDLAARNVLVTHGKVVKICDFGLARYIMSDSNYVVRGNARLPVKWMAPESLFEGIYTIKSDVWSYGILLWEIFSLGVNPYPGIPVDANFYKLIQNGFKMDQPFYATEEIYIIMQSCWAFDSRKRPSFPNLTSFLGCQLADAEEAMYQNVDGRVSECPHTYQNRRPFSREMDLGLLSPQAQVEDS
Briefly: AlphaScreen kinase assay with recombinant enzyme, FLT3-D835Y. To be noted: 8pt, GMean. It is filed as biochemical. The method in brief: (§1)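 AlphaScreen, biotinylated poly(Glu4-Tyr) 30 nM final; PY20 anti-pTyr acceptor and streptavidin donor beads 10 μg/mL; IC50 final conc. 10 μM (FLT3-D835Y, FLT3-ITD) / 100 μM (c-KIT); detection incubations 20 + 60 min RT; 580 nm emission.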
(In general: In Alpha technology, singlet oxygen from a donor bead excites a nearby acceptor bead.)

The target of the next assay is T2, FLT3-ITD (Homo sapiens, UniProt P36888).
T2 sequence (P36888 1-993): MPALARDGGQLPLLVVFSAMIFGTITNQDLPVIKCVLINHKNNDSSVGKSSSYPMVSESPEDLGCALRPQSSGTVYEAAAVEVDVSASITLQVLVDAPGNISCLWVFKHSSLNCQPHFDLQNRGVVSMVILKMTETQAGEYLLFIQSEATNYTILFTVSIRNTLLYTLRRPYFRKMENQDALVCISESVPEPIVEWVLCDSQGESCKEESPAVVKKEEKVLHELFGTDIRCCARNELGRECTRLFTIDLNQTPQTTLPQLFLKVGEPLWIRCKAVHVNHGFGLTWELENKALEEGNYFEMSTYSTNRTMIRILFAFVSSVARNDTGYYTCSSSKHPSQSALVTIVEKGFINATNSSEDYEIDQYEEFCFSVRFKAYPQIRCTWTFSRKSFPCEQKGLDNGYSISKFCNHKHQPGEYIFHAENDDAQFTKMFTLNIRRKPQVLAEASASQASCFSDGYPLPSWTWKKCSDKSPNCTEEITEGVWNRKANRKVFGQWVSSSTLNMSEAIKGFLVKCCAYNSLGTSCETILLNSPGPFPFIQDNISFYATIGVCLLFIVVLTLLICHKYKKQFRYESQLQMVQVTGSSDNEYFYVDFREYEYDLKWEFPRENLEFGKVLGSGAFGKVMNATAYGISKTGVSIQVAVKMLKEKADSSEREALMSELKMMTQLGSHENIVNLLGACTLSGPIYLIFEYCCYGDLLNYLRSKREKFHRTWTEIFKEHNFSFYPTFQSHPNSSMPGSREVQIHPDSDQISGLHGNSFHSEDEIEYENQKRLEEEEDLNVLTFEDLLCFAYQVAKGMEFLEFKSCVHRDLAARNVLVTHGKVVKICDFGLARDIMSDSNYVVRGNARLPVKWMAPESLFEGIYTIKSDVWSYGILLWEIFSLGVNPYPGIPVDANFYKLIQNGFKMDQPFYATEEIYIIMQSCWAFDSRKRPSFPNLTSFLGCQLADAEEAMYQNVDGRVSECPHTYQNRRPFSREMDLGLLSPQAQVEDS
The assay can be described thus: AlphaScreen kinase assay with recombinant enzyme, FLT3-ITD. Type of assay: biochemical. The conditions noted are these: 8pt; read-out: FLT3_ITD 8pt: IC50. The method in brief: as §1

As for `Cn1cc(-c2cc3cc(-c4cccc(C(=O)NCC(C)(C)C#N)n4)cnc3[nH]2)ccc1=O` [Compound P-0155, N-(2-cyano-2-methyl-propyl)-6-[2-(1-methyl-6-oxo-3-pyridyl)-1H-pyrrolo[2,3-b]pyridin-5-yl]pyridine-2-carboxamide], the concentration for half-maximal inhibition (IC50) on FLT3-D835Y and at FLT3-ITD was 0.0001 to 10 µM each time.

For the molecule `O=C(NC1(C(F)(F)F)CC1)c1cccc(-c2cnc3[nH]c(-c4ccccc4)cc3c2)n1` [Compound P-0156, 6-(2-phenyl-1H-pyrrolo[2,3-b]pyridin-5-yl)-N-[1-(trifluoromethyl)cyclopropyl]pyridine-2-carboxamide], the half-maximal inhibitory concentration (IC50) on FLT3-D835Y and on FLT3-ITD was 0.0001 to 10 µM each time.

Turning to `CC(C)(C#N)CNC(=O)c1cccc(-c2cnc3[nH]c(C4=CCC(F)(F)CC4)cc3c2)n1` [Compound P-0157, N-(2-cyano-2-methyl-propyl)-6-[2-(4,4-difluorocyclohexen-1-yl)-1H-pyrrolo[2,3-b]pyridin-5-yl]pyridine-2-carboxamide], the concentration for half-maximal inhibition (IC50) on FLT3-D835Y and at FLT3-ITD was 0.0001 to 10 µM in each case.

With `CC(C)(C#N)CNC(=O)c1cccc(-c2cnc3[nH]c(C4=CCSCC4)cc3c2)n1` [Compound P-0159, N-(2-cyano-2-methyl-propyl)-6-[2-(3,6-dihydro-2H-thiopyran-4-yl)-1H-pyrrolo[2,3-b]pyridin-5-yl]pyridine-2-carboxamide], the IC50 at FLT3-D835Y and at FLT3-ITD was 0.0001 to 10 µM in each case.

On to `CC(C)(C#N)CNC(=O)c1cccc(-c2cnc3[nH]c(C4=CCS(=O)(=O)CC4)cc3c2)n1` [Compound P-0160, N-(2-cyano-2-methyl-propyl)-6-[2-(1,1-dioxo-3,6-dihydro-2H-thiopyran-4-yl)-1H-pyrrolo[2,3-b]pyridin-5-yl]pyridine-2-carboxamide], for which the IC50 at FLT3-D835Y and at FLT3-ITD was 0.0001 to 10 µM in each case.

With `CC(C)(C#N)CNC(=O)c1cccc(-c2cnc3[nH]c(C4=CC[S+]([O-])CC4)cc3c2)n1` (stereo not drawn) [Compound P-0161, N-(2-cyano-2-methyl-propyl)-6-[2-(1-oxo-3,6-dihydro-2H-thiopyran-4-yl)-1H-pyrrolo[2,3-b]pyridin-5-yl]pyridine-2-carboxamide], the IC50 on FLT3-D835Y and on FLT3-ITD was 0.0001 to 10 µM in each case.

Turning to `CC(C)(C#N)CNC(=O)c1cccc(-c2cnc3[nH]c(C4=CCN(C(=O)C5CC5)CC4)cc3c2)n1` [Compound P-0162, N-(2-cyano-2-methyl-propyl)-6-[2-[1-(cyclopropanecarbonyl)-3,6-dihydro-2H-pyridin-4-yl]-1H-pyrrolo[2,3-b]pyridin-5-yl]pyridine-2-carboxamide], the half-inhibitory concentration (IC50) at FLT3-D835Y and on FLT3-ITD was 0.0001 to 10 µM each time.

Consider `Cc1cc(-c2cc3cc(-c4cccc(C(=O)NC(C)(C)C#N)n4)cnc3[nH]2)cnn1` [Compound P-0163, N-(1-cyano-1-methyl-ethyl)-6-[2-(6-methylpyridazin-4-yl)-1H-pyrrolo[2,3-b]pyridin-5-yl]pyridine-2-carboxamide], for which the IC50 on FLT3-D835Y and at FLT3-ITD was 0.0001 to 10 µM each time.

Take `CC(C)(C#N)NC(=O)c1cccc(-c2cnc3[nH]c(-c4cnn(C(F)F)c4)cc3c2)n1` [Compound P-0164, N-(2-cyanopropan-2-yl)-6-(2-(1-(difluoromethyl)-1H-pyrazol-4-yl)-1H-pyrrolo[2,3-b]pyridin-5-yl)picolinamide]: the half-maximal inhibitory concentration (IC50) on FLT3-D835Y and on FLT3-ITD was 0.0001 to 10 µM throughout.

As for `CC(C)(C#N)NC(=O)c1cccc(-c2cnc3[nH]c(-c4cnn(C5CC5)c4)cc3c2)n1` [Compound P-0165, N-(1-cyano-1-methyl-ethyl)-6-[2-(1-cyclopropylpyrazol-4-yl)-1H-pyrrolo[2,3-b]pyridin-5-yl]pyridine-2-carboxamide], the concentration for half-maximal inhibition (IC50) at FLT3-D835Y and on FLT3-ITD was 0.0001 to 10 µM throughout.

Regarding `CC(C)(C#N)NC(=O)c1cccc(-c2cnc3[nH]c(-c4cnc(C5CC5)nc4)cc3c2)n1` [Compound P-0166, N-(1-cyano-1-methyl-ethyl)-6-[2-(2-cyclopropylpyrimidin-5-yl)-1H-pyrrolo[2,3-b]pyridin-5-yl]pyridine-2-carboxamide], the 50% inhibitory concentration (IC50) at FLT3-D835Y and at FLT3-ITD was 0.0001 to 10 µM in each case.

On to `CC(C)(C#N)NC(=O)c1cccc(-c2cnc3[nH]c(-c4ccc(C5CC5)nc4)cc3c2)n1` [Compound P-0168, N-(1-cyano-1-methyl-ethyl)-6-[2-(6-cyclopropyl-3-pyridyl)-1H-pyrrolo[2,3-b]pyridin-5-yl]pyridine-2-carboxamide], for which the concentration for half-maximal inhibition (IC50) on FLT3-D835Y and on FLT3-ITD was 0.0001 to 10 µM throughout.

On to `Cc1nc(C(C)C)sc1-c1cc2cc(-c3cccc(C(=O)NC(C)(C)C#N)n3)cnc2[nH]1` [Compound P-0169, N-(1-cyano-1-methyl-ethyl)-6-[2-(2-isopropyl-4-methyl-thiazol-5-yl)-1H-pyrrolo[2,3-b]pyridin-5-yl]pyridine-2-carboxamide], for which the IC50 on FLT3-D835Y and at FLT3-ITD was 0.0001 to 10 µM throughout.

`CC(C)(C#N)NC(=O)c1cccc(-c2cnc3[nH]c(-c4cnn(CCC#N)c4)cc3c2)n1` [Compound P-0170, 6-[2-[1-(2-cyanoethyl)pyrazol-4-yl]-1H-pyrrolo[2,3-b]pyridin-5-yl]-N-(1-cyano-1-methyl-ethyl)pyridine-2-carboxamide]: the IC50 on FLT3-D835Y and at FLT3-ITD was 0.0001 to 10 µM in each case.

With `CC(C)(C#N)NC(=O)c1cccc(-c2cnc3[nH]c(-c4cnn(Cc5ccccc5)c4)cc3c2)n1` [Compound P-0171, 6-[2-(1-benzylpyrazol-4-yl)-1H-pyrrolo[2,3-b]pyridin-5-yl]-N-(1-cyano-1-methyl-ethyl)pyridine-2-carboxamide], the IC50 at FLT3-D835Y and on FLT3-ITD was 0.0001 to 10 µM in each case.

In the case of `COCCn1cc(-c2cc3cc(-c4cccc(C(=O)NC(C)(C)C#N)n4)cnc3[nH]2)cn1` [Compound P-0172, N-(1-cyano-1-methyl-ethyl)-6-[2-[1-(2-methoxyethyl)pyrazol-4-yl]-1H-pyrrolo[2,3-b]pyridin-5-yl]pyridine-2-carboxamide], the IC50 on FLT3-D835Y and on FLT3-ITD was 0.0001 to 10 µM throughout.

Regarding `CC(C)(C#N)NC(=O)c1cccc(-c2cnc3[nH]c(-c4cnn(C5CCOC5)c4)cc3c2)n1` (stereo not drawn) [Compound P-0173, N-(1-cyano-1-methyl-ethyl)-6-[2-(1-tetrahydrofuran-3-ylpyrazol-4-yl)-1H-pyrrolo[2,3-b]pyridin-5-yl]pyridine-2-carboxamide], the half-maximal inhibitory concentration (IC50) on FLT3-D835Y and on FLT3-ITD was 0.0001 to 10 µM each time.

For `CC(C)(C#N)NC(=O)c1cccc(-c2cnc3[nH]c(-c4cnn(CCN5CCOCC5)c4)cc3c2)n1` [Compound P-0174, N-(1-cyano-1-methyl-ethyl)-6-[2-[1-(2-morpholinoethyl)pyrazol-4-yl]-1H-pyrrolo[2,3-b]pyridin-5-yl]pyridine-2-carboxamide], the IC50 on FLT3-D835Y and at FLT3-ITD was 0.0001 to 10 µM in each case.

The values are drawn from US9938273B2 (Plexxikon Inc., priority 2015, dated 2018).
